Results reported in the supplement of paper PMC12463676, “Small-molecule dissolution of stress granules by redox modulation benefits ALS models” (Nature Chemical Biology, 2025).

compound: NC(=O)CCCCC1CCSS1 [lipoamide]; experiment: thermal stability z-score vs DMSO; higher = more thermally stabilized by treatment; conditions: HeLa; lipoamide concentration 100 µM; arsenate co-treatment: 1 mM arsenate 1 h
Experimental: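 Cellular thermal proteome profiling in HeLa cells. Cells were treated with 100 µM lipoamide for 1 h, with or without 1 mM arsenate for a further 1 h, then heated to ten temperatures (37-66.3 °C), and soluble protein was quantified by TMT mass spectrometry relative to 0.1% DMSO controls. The thermal stability score (sum of log2 fold changes minus the abundance score) was transformed to a z-score; mean of n = 3 experiments.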
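Also: each temperature applied for 3 min, abundance score taken as mean log2 fold change at the two lowest temperatures, z-score obtained by mean subtraction and division by SD.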

Chain of UniProt P19838 (P19838 whole entry): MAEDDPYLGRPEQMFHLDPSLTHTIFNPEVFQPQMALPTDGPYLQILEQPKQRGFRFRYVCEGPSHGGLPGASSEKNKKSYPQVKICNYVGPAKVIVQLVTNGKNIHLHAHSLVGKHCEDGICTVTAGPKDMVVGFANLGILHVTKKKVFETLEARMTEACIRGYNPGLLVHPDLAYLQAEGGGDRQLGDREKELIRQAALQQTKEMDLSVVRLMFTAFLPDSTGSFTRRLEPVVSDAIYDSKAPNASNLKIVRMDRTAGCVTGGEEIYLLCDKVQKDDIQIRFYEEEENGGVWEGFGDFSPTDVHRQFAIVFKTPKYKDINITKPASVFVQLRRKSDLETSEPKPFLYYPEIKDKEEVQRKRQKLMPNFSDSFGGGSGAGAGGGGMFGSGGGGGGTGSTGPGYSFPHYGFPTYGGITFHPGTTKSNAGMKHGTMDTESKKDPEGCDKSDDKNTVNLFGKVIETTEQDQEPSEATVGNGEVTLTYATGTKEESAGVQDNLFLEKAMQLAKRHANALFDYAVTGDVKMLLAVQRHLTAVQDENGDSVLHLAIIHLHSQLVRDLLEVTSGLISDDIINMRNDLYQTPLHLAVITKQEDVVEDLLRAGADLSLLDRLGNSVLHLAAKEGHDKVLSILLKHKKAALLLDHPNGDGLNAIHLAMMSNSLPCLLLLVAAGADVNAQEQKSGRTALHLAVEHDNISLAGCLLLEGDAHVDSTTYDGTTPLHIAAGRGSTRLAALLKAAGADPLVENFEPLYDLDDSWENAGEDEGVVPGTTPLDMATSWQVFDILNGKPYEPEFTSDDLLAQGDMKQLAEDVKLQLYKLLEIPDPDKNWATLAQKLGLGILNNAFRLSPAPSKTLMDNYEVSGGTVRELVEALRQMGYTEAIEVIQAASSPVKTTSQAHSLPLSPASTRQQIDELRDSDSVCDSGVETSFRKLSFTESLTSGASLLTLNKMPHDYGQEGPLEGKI
Chain of UniProt Q14703 (Q14703 whole entry): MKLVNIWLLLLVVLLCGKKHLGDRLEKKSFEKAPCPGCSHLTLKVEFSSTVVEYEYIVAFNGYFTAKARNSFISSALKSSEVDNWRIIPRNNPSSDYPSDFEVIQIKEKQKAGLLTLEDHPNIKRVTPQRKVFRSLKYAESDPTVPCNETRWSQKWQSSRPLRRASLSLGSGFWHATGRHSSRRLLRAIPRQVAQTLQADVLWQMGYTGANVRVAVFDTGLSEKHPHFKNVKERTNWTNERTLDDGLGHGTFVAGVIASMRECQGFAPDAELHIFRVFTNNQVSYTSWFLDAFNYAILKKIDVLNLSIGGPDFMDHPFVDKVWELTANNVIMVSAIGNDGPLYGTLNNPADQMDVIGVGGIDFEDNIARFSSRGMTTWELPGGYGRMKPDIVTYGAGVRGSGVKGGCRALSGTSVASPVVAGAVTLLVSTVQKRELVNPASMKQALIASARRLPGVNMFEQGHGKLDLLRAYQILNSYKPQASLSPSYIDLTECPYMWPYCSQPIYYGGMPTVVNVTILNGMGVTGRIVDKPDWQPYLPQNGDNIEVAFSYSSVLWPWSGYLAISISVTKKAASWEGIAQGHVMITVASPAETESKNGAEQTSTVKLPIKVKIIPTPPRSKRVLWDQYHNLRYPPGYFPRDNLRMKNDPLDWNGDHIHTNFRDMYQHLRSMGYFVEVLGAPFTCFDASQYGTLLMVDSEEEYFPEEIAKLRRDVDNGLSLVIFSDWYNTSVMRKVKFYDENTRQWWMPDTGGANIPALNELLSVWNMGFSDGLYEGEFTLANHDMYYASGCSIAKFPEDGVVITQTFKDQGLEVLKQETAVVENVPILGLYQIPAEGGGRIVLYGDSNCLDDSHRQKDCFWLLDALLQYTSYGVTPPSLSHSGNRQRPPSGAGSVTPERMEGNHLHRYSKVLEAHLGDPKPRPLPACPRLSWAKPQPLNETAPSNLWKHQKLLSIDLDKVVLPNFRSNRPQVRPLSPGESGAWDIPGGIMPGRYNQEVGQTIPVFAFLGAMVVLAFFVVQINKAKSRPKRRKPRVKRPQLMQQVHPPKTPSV
Chain of UniProt Q9BUZ4 (Q9BUZ4 whole entry): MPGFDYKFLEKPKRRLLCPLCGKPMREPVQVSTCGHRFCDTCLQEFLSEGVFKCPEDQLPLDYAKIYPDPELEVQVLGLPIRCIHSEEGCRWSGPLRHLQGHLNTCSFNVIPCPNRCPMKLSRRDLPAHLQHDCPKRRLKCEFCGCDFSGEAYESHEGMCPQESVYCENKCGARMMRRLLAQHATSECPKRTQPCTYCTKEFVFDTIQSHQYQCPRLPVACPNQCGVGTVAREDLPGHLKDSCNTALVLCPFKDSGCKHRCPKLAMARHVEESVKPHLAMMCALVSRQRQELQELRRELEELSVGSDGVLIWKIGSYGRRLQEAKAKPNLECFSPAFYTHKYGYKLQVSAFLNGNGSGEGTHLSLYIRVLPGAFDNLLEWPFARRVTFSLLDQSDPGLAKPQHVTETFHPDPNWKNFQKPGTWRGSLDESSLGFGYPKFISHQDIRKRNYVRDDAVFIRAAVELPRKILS
Chain of UniProt Q14683 (Q14683 whole entry): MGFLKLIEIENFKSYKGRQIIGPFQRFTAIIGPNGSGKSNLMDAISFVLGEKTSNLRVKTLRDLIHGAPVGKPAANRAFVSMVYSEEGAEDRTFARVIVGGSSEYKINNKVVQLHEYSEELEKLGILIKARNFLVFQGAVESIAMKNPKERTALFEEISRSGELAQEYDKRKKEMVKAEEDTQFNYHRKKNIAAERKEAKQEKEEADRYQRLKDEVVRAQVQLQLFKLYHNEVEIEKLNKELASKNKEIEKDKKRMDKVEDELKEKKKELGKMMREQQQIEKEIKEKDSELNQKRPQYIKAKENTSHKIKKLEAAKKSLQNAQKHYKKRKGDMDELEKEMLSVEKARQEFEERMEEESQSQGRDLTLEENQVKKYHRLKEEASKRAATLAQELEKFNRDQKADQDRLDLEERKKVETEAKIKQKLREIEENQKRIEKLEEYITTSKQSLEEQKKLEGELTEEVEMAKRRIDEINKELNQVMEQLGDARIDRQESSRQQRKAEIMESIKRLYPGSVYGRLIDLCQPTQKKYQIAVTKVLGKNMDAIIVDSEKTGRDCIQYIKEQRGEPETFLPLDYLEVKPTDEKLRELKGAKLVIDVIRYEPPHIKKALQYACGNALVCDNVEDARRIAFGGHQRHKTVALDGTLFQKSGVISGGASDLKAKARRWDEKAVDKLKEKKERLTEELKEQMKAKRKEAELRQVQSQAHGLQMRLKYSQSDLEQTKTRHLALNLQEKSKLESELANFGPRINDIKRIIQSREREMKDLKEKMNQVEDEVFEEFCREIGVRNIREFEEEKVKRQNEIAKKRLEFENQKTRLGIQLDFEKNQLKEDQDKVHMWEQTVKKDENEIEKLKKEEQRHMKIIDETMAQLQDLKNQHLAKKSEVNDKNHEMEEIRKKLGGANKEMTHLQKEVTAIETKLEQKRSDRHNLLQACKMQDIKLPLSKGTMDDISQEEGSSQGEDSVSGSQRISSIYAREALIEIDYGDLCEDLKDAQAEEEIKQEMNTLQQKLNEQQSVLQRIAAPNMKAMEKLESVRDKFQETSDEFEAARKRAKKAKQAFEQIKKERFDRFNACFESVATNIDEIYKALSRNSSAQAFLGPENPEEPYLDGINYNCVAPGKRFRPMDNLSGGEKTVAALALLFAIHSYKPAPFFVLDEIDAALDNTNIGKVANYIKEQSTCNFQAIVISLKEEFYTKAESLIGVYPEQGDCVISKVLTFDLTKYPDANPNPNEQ
Chain of UniProt Q9UHQ9 (Q9UHQ9 whole entry): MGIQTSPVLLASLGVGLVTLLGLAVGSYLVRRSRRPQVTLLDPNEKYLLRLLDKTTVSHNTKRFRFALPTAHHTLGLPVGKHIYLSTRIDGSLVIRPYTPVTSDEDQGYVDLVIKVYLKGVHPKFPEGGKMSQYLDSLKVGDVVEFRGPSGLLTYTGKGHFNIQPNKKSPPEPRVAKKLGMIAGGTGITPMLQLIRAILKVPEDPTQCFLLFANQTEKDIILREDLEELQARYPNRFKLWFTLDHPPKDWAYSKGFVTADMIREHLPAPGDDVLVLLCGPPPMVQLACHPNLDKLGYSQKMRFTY
Chain of UniProt Q9UHD1 (Q9UHD1 whole entry): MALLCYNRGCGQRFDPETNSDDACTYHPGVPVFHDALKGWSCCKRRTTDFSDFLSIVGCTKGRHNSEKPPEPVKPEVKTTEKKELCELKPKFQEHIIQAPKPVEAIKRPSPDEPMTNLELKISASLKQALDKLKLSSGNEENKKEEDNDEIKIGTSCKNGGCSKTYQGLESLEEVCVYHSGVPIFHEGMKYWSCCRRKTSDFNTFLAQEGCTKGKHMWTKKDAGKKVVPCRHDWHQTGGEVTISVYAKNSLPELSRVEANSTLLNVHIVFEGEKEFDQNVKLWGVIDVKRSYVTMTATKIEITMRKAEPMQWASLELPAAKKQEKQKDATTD
Chain of UniProt Q4G176 (Q4G176 whole entry): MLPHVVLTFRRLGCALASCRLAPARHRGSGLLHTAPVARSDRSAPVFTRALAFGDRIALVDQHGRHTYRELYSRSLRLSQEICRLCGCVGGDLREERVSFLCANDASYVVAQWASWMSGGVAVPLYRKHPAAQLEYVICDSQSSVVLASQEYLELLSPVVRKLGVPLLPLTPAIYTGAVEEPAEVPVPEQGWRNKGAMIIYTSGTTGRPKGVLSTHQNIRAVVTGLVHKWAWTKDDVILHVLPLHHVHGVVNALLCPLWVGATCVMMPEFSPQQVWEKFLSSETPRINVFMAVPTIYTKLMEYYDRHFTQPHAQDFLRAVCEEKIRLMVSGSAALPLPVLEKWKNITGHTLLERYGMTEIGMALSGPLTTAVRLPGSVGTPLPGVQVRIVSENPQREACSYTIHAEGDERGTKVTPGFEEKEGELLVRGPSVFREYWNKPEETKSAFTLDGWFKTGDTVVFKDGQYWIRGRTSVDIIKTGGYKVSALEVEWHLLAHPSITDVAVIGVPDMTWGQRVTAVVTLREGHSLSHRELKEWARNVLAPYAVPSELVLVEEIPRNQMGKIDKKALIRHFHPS
Chain of UniProt Q9NPE3 (Q9NPE3 whole entry): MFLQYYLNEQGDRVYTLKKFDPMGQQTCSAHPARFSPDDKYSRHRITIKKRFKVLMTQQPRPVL

**Q.** With TOMM20 (UniProt Q15388) as the target, how does the thermal stability z-score read?
**A.** Its thermal stability z-score is 0.133.

**Q.** With HDGF (UniProt P51858) as the target, how does the thermal stability z-score read?
**A.** The thermal stability z-score was 0.026.

**Q.** With ACSF3 (UniProt Q4G176) as the target, how does the thermal stability z-score read?
**A.** The thermal stability z-score was -0.68.

**Q.** With CDC45 (UniProt O75419) as the target, how does the thermal stability z-score read?
**A.** The thermal stability z-score was 0.0843.

**Q.** How did the thermal stability z-score turn out when SMC1A (UniProt Q14683) was run?
**A.** Its thermal stability z-score is 0.323.

**Q.** For SLC4A7 (UniProt Q9Y6M7), which thermal stability z-score is on record?
**A.** The thermal stability z-score was -0.0849.

**Q.** BCCIP (UniProt Q9P287) was tested. Which thermal stability z-score did it give?
**A.** The thermal stability z-score was 0.431.

**Q.** NOP10 (UniProt Q9NPE3) was tested. Which thermal stability z-score did it give?
**A.** The thermal stability z-score was 0.405.

**Q.** With RAB31 (UniProt Q13636) as the target, how does the thermal stability z-score read?
**A.** The thermal stability z-score was 0.762.

**Q.** For CHORDC1 (UniProt Q9UHD1), which thermal stability z-score is on record?
**A.** Its thermal stability z-score is 0.149.

**Q.** MATR3 (UniProt P43243) was tested. Which thermal stability z-score did it give?
**A.** The thermal stability z-score was 2.1.

**Q.** SYAP1 (UniProt Q96A49) was tested. Which thermal stability z-score did it give?
**A.** Its thermal stability z-score is 0.0475.

**Q.** With PLEKHB2 (UniProt Q96CS7) as the target, how does the thermal stability z-score read?
**A.** Its thermal stability z-score is -0.698.

**Q.** For BET1 (UniProt O15155), which thermal stability z-score is on record?
**A.** Its thermal stability z-score is 0.642.

**Q.** LYPLAL1 (UniProt Q5VWZ2) was tested. Which thermal stability z-score did it give?
**A.** The thermal stability z-score was 0.152.

**Q.** Which thermal stability z-score does the source give for PGD (UniProt P52209) here?
**A.** The thermal stability z-score was 0.318.

**Q.** Which thermal stability z-score does the source give for GLUD1 (UniProt P00367) here?
**A.** Its thermal stability z-score is -1.37.

**Q.** With TRAF4 (UniProt Q9BUZ4) as the target, how does the thermal stability z-score read?
**A.** Its thermal stability z-score is -0.818.

**Q.** How did the thermal stability z-score turn out when MBTPS1 (UniProt Q14703) was run?
**A.** The thermal stability z-score was -0.923.

**Q.** COMMD1 (UniProt Q8N668) was tested. Which thermal stability z-score did it give?
**A.** The thermal stability z-score was 0.0519.

**Q.** For AP1S1 (UniProt P61966), which thermal stability z-score is on record?
**A.** The thermal stability z-score was -0.264.

**Q.** With CYB5R1 (UniProt Q9UHQ9) as the target, how does the thermal stability z-score read?
**A.** Its thermal stability z-score is 1.47.

**Q.** For CLASP2 (UniProt O75122), which thermal stability z-score is on record?
**A.** The thermal stability z-score was -0.0563.

**Q.** With NFKB1 (UniProt P19838) as the target, how does the thermal stability z-score read?
**A.** The thermal stability z-score was 0.0975.

**Q.** With ZDHHC13 (UniProt Q8IUH4) as the target, how does the thermal stability z-score read?
**A.** Its thermal stability z-score is 0.0485.

**Q.** Which thermal stability z-score does the source give for ZFP91 (UniProt Q96JP5) here?
**A.** The thermal stability z-score was -0.301.

**Q.** MRPL22 (UniProt Q9NWU5) was tested. Which thermal stability z-score did it give?
**A.** Its thermal stability z-score is 0.32.

**Q.** For CNNM3 (UniProt Q8NE01), which thermal stability z-score is on record?
**A.** The thermal stability z-score was -0.728.

**Q.** PHLDB2 (UniProt Q86SQ0) was tested. Which thermal stability z-score did it give?
**A.** The thermal stability z-score was -1.07.

**Q.** How did the thermal stability z-score turn out when RPL14 (UniProt P50914) was run?
**A.** The thermal stability z-score was 0.565.

**Q.** How did the thermal stability z-score turn out when NARF (UniProt Q9UHQ1) was run?
**A.** Its thermal stability z-score is 0.102.

**Q.** How did the thermal stability z-score turn out when CHRAC1 (UniProt Q9NRG0) was run?
**A.** Its thermal stability z-score is -0.123.

**Q.** For CTSA (UniProt P10619), which thermal stability z-score is on record?
**A.** The thermal stability z-score was -0.264.

**Q.** With MOGS (UniProt Q13724) as the target, how does the thermal stability z-score read?
**A.** The thermal stability z-score was -1.24.

**Q.** How did the thermal stability z-score turn out when DBR1 (UniProt Q9UK59) was run?
**A.** The thermal stability z-score was 0.0885.

**Q.** With NPTN (UniProt Q9Y639) as the target, how does the thermal stability z-score read?
**A.** Its thermal stability z-score is 0.275.

**Q.** For RNF213 (UniProt Q63HN8), which thermal stability z-score is on record?
**A.** The thermal stability z-score was -0.473.

**Q.** With PMPCB (UniProt O75439) as the target, how does the thermal stability z-score read?
**A.** Its thermal stability z-score is 0.254.

**Q.** Which thermal stability z-score does the source give for SPECC1 (UniProt Q5M775) here?
**A.** Its thermal stability z-score is 0.0376.

**Q.** How did the thermal stability z-score turn out when TSEN15 (UniProt Q8WW01) was run?
**A.** Its thermal stability z-score is -0.438.

**Q.** How did the thermal stability z-score turn out when PTEN (UniProt P60484) was run?
**A.** The thermal stability z-score was -0.0735.

**Q.** How did the thermal stability z-score turn out when CABLES1 (UniProt Q8TDN4) was run?
**A.** The thermal stability z-score was 0.124.

**Q.** How did the thermal stability z-score turn out when ALDH4A1 (UniProt P30038) was run?
**A.** Its thermal stability z-score is -0.59.

**Q.** How did the thermal stability z-score turn out when TRAPPC3 (UniProt O43617) was run?
**A.** The thermal stability z-score was 0.589.

**Q.** PPP3CA (UniProt Q08209) was tested. Which thermal stability z-score did it give?
**A.** The thermal stability z-score was 1.25.

**Q.** For EIF4G2 (UniProt P78344), which thermal stability z-score is on record?
**A.** The thermal stability z-score was -0.0525.

**Q.** For TRIM11 (UniProt Q96F44), which thermal stability z-score is on record?
**A.** Its thermal stability z-score is -0.68.

**Q.** For RPS9 (UniProt P46781), which thermal stability z-score is on record?
**A.** The thermal stability z-score was 0.28.

**Q.** Which thermal stability z-score does the source give for MYPN (UniProt Q86TC9) here?
**A.** The thermal stability z-score was 0.126.

**Q.** For PXDN (UniProt Q92626), which thermal stability z-score is on record?
**A.** Its thermal stability z-score is -1.65.

**Q.** HECTD1 (UniProt Q9ULT8) was tested. Which thermal stability z-score did it give?
**A.** The thermal stability z-score was -0.353.

**Q.** FBXO4 (UniProt Q9UKT5) was tested. Which thermal stability z-score did it give?
**A.** The thermal stability z-score was -0.0696.

**Q.** How did the thermal stability z-score turn out when PRMT3 (UniProt O60678) was run?
**A.** Its thermal stability z-score is -0.336.

**Q.** For AP5Z1 (UniProt O43299), which thermal stability z-score is on record?
**A.** Its thermal stability z-score is 0.0372.

**Q.** NOL6 (UniProt Q9H6R4) was tested. Which thermal stability z-score did it give?
**A.** The thermal stability z-score was 0.328.

same assay, conditions: HeLa; lipoamide concentration 100 µM; arsenate co-treatment: none

**Q.** For TOMM20 (UniProt Q15388), which thermal stability z-score is on record?
**A.** Its thermal stability z-score is 1.67.

**Q.** How did the thermal stability z-score turn out when HDGF (UniProt P51858) was run?
**A.** The thermal stability z-score was 0.439.

**Q.** With ACSF3 (UniProt Q4G176) as the target, how does the thermal stability z-score read?
**A.** Its thermal stability z-score is 0.39.

**Q.** Which thermal stability z-score does the source give for CDC45 (UniProt O75419) here?
**A.** The thermal stability z-score was 0.0302.

**Q.** SMC1A (UniProt Q14683) was tested. Which thermal stability z-score did it give?
**A.** The thermal stability z-score was 0.28.

**Q.** With SLC4A7 (UniProt Q9Y6M7) as the target, how does the thermal stability z-score read?
**A.** Its thermal stability z-score is 0.00104.

**Q.** For BCCIP (UniProt Q9P287), which thermal stability z-score is on record?
**A.** Its thermal stability z-score is -0.061.

**Q.** Which thermal stability z-score does the source give for NOP10 (UniProt Q9NPE3) here?
**A.** The thermal stability z-score was -0.0767.

**Q.** For RAB31 (UniProt Q13636), which thermal stability z-score is on record?
**A.** Its thermal stability z-score is 0.822.

**Q.** Which thermal stability z-score does the source give for CHORDC1 (UniProt Q9UHD1) here?
**A.** Its thermal stability z-score is 0.043.

**Q.** Which thermal stability z-score does the source give for MATR3 (UniProt P43243) here?
**A.** Its thermal stability z-score is 0.607.

**Q.** With SYAP1 (UniProt Q96A49) as the target, how does the thermal stability z-score read?
**A.** The thermal stability z-score was -0.0361.

**Q.** PLEKHB2 (UniProt Q96CS7) was tested. Which thermal stability z-score did it give?
**A.** The thermal stability z-score was -0.101.

**Q.** BET1 (UniProt O15155) was tested. Which thermal stability z-score did it give?
**A.** The thermal stability z-score was 1.03.

**Q.** LYPLAL1 (UniProt Q5VWZ2) was tested. Which thermal stability z-score did it give?
**A.** The thermal stability z-score was 0.0691.

**Q.** For PGD (UniProt P52209), which thermal stability z-score is on record?
**A.** Its thermal stability z-score is 0.403.

**Q.** Which thermal stability z-score does the source give for GLUD1 (UniProt P00367) here?
**A.** The thermal stability z-score was -0.412.

**Q.** Which thermal stability z-score does the source give for TRAF4 (UniProt Q9BUZ4) here?
**A.** Its thermal stability z-score is -0.748.

**Q.** How did the thermal stability z-score turn out when MBTPS1 (UniProt Q14703) was run?
**A.** The thermal stability z-score was -0.876.

**Q.** For COMMD1 (UniProt Q8N668), which thermal stability z-score is on record?
**A.** Its thermal stability z-score is 0.0285.

**Q.** With AP1S1 (UniProt P61966) as the target, how does the thermal stability z-score read?
**A.** Its thermal stability z-score is -0.339.

**Q.** CYB5R1 (UniProt Q9UHQ9) was tested. Which thermal stability z-score did it give?
**A.** The thermal stability z-score was 0.244.

**Q.** CLASP2 (UniProt O75122) was tested. Which thermal stability z-score did it give?
**A.** The thermal stability z-score was -0.198.

**Q.** For NFKB1 (UniProt P19838), which thermal stability z-score is on record?
**A.** Its thermal stability z-score is 0.14.

**Q.** How did the thermal stability z-score turn out when ZDHHC13 (UniProt Q8IUH4) was run?
**A.** The thermal stability z-score was -0.0918.

**Q.** How did the thermal stability z-score turn out when ZFP91 (UniProt Q96JP5) was run?
**A.** The thermal stability z-score was 0.00195.

**Q.** With MRPL22 (UniProt Q9NWU5) as the target, how does the thermal stability z-score read?
**A.** The thermal stability z-score was 0.464.
